# Measured values from US20090054523A1, “Use of a Fatty Acid Composition Containing DHA for the Production of a Medical Product or a Food Stuff for the Treatment of Amyloidos-Related Diseases” (priority 2005, published 2009).
# Test system: secondary amyloidosis (spleen amyloid)
# Experiment: Secondary amyloidosis induced by silver nitrate injections, spleen amyloid by Congo red
# Assay type: in vivo, Female NMRI mice
# Description: Female NMRI mice were injected once a week subcutaneously with 0.3 ml of a 1% silver nitrate solution for 25 weeks. The animals were fed high fat diet containing mainly sunflower oil with a fat content of 55% of total daily calories. Three groups each consisting of 6 animals were given different omega-3 fatty acid concentrates (intervention group) or standard olive oil containing about 78% oleic acid (oleic acid group). In the intervention groups 15% of the fat content was exchanged with either 97% docosahexaenoic acid (DHA group) or EPAX1050TG containing 10% of EPA and 50% of DHA (EPAX group).
# After study completion the mice were sacrificed and spleens were collected.
# The air-dried smear material and 10-μm-thick sections from the formalin fixed material were stained for amyloid with specific dye alkaline Congo red. The slides were examined in cross-polarized light for bright green birefringence, specific for amyloid. Evaluation of the material was performed on coded slides.
structure (smiles),measurement,setting,value
"CC/C=C\C/C=C\C/C=C\C/C=C\C/C=C\C/C=C\CCC(=O)O [DHA, (all-Z omega-3)-4,7,10,13,16,19-docosahexaenoic acid]",amyloid appeared in the spleen,"25 weeks of weekly s.c. silver nitrate, 15% of fat content exchanged",one out of six
same,animals that developed amyloid after silver nitrate injections,after 25 weeks of treatment,one
same,animals with amyloid,"spleen, 25 weeks of weekly s.c. silver nitrate, 15% of tot. fat of high fat diet exchanged",1/6 animals
